Patent publication US20220064689A1, “AMPHOTERIC GLYCOLIPID BIOSURFACTANT AND ITS PREPARATION METHOD” (Mikros Biochem, priority 2020, published 2022)
“And” between values parts separate entries of the source, which are not always exact repeats. Equal values may be shown once.

How the values were obtained:
[1] = test system: Staphylococcus aureus (ATCC 6538); assay: Antibacterial analysis per national standard WS/T 650-2019, viable count over 28 days; format: cell-based; conditions: 4.0% (aqueous solution of surfactant, or 4.0% sodium benzoate comparative)
Procedure: (§1) Using the protocol set out in the national standard test WS/T 650-2019 “Evaluation Method of Antibacterial and Antibacterial Effects”, the amphiphilic biosurfactant produced as described above was analysed for antibacterial effects.

[2] = test system: Candida albicans (ATCC 10231); assay: as above; format: cell-based; conditions: 4.0% (aqueous solution of surfactant, or 4.0% sodium benzoate comparative)
Procedure: as §1

SMILES: O=C([O-])c1ccccc1.[Na+] [sodium benzoate]
- CFU/mL Staphylococcus aureus (ATCC 6538) Day 0 ([1]; Day 0): 5.0 × 10^6 CFU/mL and 5.2 × 10^6 CFU/mL
- CFU/mL Staphylococcus aureus (ATCC 6538) Day 14 ([1]; Day 14): 8.7 × 10^1 CFU/mL
- CFU/mL Staphylococcus aureus (ATCC 6538) Day 21 ([1]; Day 21): <10 CFU/mL
- CFU/mL Candida albicans (ATCC 10231) Day 0 ([2]; Day 0): 4.0 × 10^5 CFU/mL
- CFU/mL Candida albicans (ATCC 10231) Day 7 ([2]; Day 7): 3.4 × 10^2 CFU/mL
- CFU/mL Candida albicans (ATCC 10231) Day 14 ([2]; Day 14): 3.0 × 10^1 CFU/mL
- CFU/mL Candida albicans (ATCC 10231) Day 21 ([2]; Day 21): <10 CFU/mL
- CFU/mL Candida albicans (ATCC 10231) Day 28 ([2]; Day 28): <10 CFU/mL
